{
  "source": "patent US4182712A",
  "about": "“5-Substituted thiadiazole ureas” (Mobil Oil Corporation, priority 1977, dated 1980)",
  "data": [
    {"tested_on": "crops and weed species", "experiment": "Pre- and post-emergence herbicide tests, overall (Tables III-VI)", "format": "in vivo", "settings": "in words", "description": "(§1) All crop and weed species were planted individually in 3\" plastic pots containing potting soil. Four seeds each of corn, cotton, and snapbeans were seeded to a depth equal to the diameter of the seed. All other species were surface seeded and sprinkled with screened soil in an amount sufficient to cover the seed. Immediately after planting, all pots were watered by sub-irrigation in greenhouse trays. Pots for the pre-emergence phase were seeded one day before treatment.\n(§2) Planting dates for the post-emergence phase were varied so that all seedlings would reach the desired stage of development simultaneously. The proper stage of seedling development for treatment in the post-emergence phase is as follows:\n(§3) Compounds were tested at rates of application equivalent to 8 lbs. of actual compound per acre in a spray volume of 38 gallons per acre. Spray hood constants required to deliver the above volume are as follows:\nTwo weeks after treatment, pre- and post-emergence injury or control was visually rated, and the results were as shown in the following tables. Pre-emergence data are provided in TABLE III and post-emergence data are provided in TABLE IV, for compounds having the formula illustrated in TABLE I. Correspondingly, pre-emergence and post-emergence data, respectively, are set forth in TABLES V AND VI, for compounds having the formula illustrated in TABLE II.", "values": [
      {"compound": "CNC(=O)Nc1nnc(COC)s1", "note": "[Example 25]", "selectivity toward a certain crop or weed species": "more selective when applied to a certain crop or weed species"},
      {"compound": "CNC(=O)Nc1nnc(SC)s1", "note": "[Example 26]", "herbicidal effectiveness on a variety of crops and weed species": "extremely effective"},
      {"compound": "O=C(Nc1ccc(Cl)c(Cl)c1)Nc1nnc(C(F)(F)F)s1", "note": "[Example 16]", "selectivity toward a certain crop or weed species": "more selective when applied to a certain crop or weed species"},
      {"compound": "CCN(C(=O)NC)c1nnc(C(F)(F)F)s1", "note": "[Example 37]", "herbicidal effectiveness on a variety of crops and weed species": "extremely effective"},
      {"compound": "C=CCNC(=O)Nc1nnc(C(F)(F)F)s1", "note": "[Example 12]", "selectivity post-emergence versus pre-emergence": "control post-emergence growth, while have little effect in regard to pre-emergence"},
      {"compound": "CN(C)C(=O)Nc1nnc(C(F)(F)F)s1", "note": "[Example 2, 1,1-Dimethyl-3-[5-Trifluoromethyl-2-(1,3,4-Thiadiazolyl)] Urea]", "herbicidal effectiveness on a variety of crops and weed species": "extremely effective"},
      {"compound": "Cc1nnc(NC(=O)N(C)C)s1", "note": "[Example 19]", "selectivity post-emergence versus pre-emergence": "The converse of this relationship"},
      {"compound": "CNC(=O)Nc1nncs1", "note": "[Example 35]", "selectivity toward a certain crop or weed species": "more selective when applied to a certain crop or weed species"},
      {"compound": "CNC(=O)N(C)c1nnc(C(F)(F)F)s1", "note": "[Example 36]", "herbicidal effectiveness on a variety of crops and weed species": "extremely effective"},
      {"compound": "CCc1nnc(NC(=O)N(C)C)s1", "note": "[Example 20]", "selectivity toward a certain crop or weed species": "more selective when applied to a certain crop or weed species"},
      {"compound": "O=C(Nc1ccc(Cl)cc1)Nc1nnc(C(F)(F)F)s1", "note": "[Example 15]", "selectivity toward a certain crop or weed species": "more selective when applied to a certain crop or weed species"},
      {"compound": "CNC(=O)Nc1nnc(CC(C)C)s1", "note": "[Example 21]", "selectivity toward a certain crop or weed species": "more selective when applied to a certain crop or weed species"},
      {"compound": "CNC(=O)Nc1nnc(C(F)(F)F)s1", "note": "[Example 1, 1-Methyl-3-[5-Trifluoromethyl-2-(1,3,4-Thiadiazolyl)] Urea]", "herbicidal effectiveness on a variety of crops and weed species": "extremely effective"},
      {"compound": "CCNC(=O)Nc1nnc(C(F)(F)F)s1", "note": "[Example 9]", "selectivity toward a certain crop or weed species": "more selective when applied to a certain crop or weed species"},
      {"compound": "CSc1nnc(N(C)C(=O)N(C)C)s1", "note": "[Example 5, 1,1,3-trimethyl-3-[5-methylthio-2-(1,3,4-thiadiazolyl)] urea]", "herbicidal effectiveness on a variety of crops and weed species": "extremely effective"}
    ]},
    {"tested_on": "Cotton (CT)", "experiment": "Post-emergence herbicide test, cotton", "format": "in vivo, Gossypium hirsutum var. DPL smooth leaf", "settings": "Gossypium hirsutum, 336 h, 2 lb/acre, two weeks after treatment", "description": "Cotton (CT)--Gossypium hirsutum var. DPL smooth leaf\nas §1, §2\nCotton: first true leaf 1\" in length; expanded cotyledons.\nas §3\n(§4) Formulations for spray applications were prepared in 50 ml volumes with the following three components:\n(§5) Formulations for the 4 lbs/acre rate were prepared by adjusting the amount of active ingredient accordingly.\n(§6) Spray applications were made in a hood containing a removable belt and fixed spray nozzle. […]", "units": {"pest or weed control at 2241.7 g/ha": "%"}, "values": [
      {"compound": "CNC(=O)Nc1nnc(SCCCCl)s1", "note": "[Example 61]", "pest or weed control at 2241.7 g/ha": 40}
    ]},
    {"tested_on": "Corn (CN)", "experiment": "Post-emergence herbicide test, corn", "format": "in vivo", "settings": "Zea mays, 336 h, 2 lb/acre, two weeks after treatment", "description": "as §1, §2, §3, §4, §5\nSpray applications were made in a hood containing a removable belt and fixed spray nozzle. For passage through the spray hood, one pot of each specie (pre-emergence phase) was placed on the rear half of the flat. Treatments were removed to the greenhouse after spraying. […]", "units": {"pest or weed control at 2241.7 g/ha": "%"}, "values": [
      {"compound": "CNC(=O)Nc1nnc(SCCCCl)s1", "note": "[Example 61]", "pest or weed control at 2241.7 g/ha": 100}
    ]},
    {"tested_on": "Amaranth pigweed (PW)", "experiment": "Post-emergence herbicide test, amaranth pigweed", "format": "in vivo, Amaranthus retroflexus", "settings": "336 h, 8 lb/acre, two weeks after treatment", "description": "as §1, §2\nPigweed and turnips: 1 or 2 true leaves above visible cotyledons.\nas §3, §4, §5, §6", "units": {"pest or weed control at 8966.8 g/ha": "%"}, "values": [
      {"compound": "O=C(Nc1ccc(Cl)c(Cl)c1)Nc1nnc(C(F)(F)F)s1", "note": "[Example 16]", "pest or weed control at 8966.8 g/ha": 100}
    ]}
  ]
}
